Laboratory results reported in ChEMBL document CHEMBL1201862, “PubChem BioAssay data set” (2004).
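96-well plates; 48 h exposure; 5 concentrations. Endpoints by linear interpolation between flanking doses. Not reached: highest tested concentration assigned. At the GI50, growth is halved.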 Activity calls are given as the source filed them. Cut-off read from the data, not from the text of the source: active = GI50 up to about 1.1 µM and inactive = higher.

How the values were obtained:
Assay in all cases: NCI anticancer screen, dose series, 48 h
[1] = test system: 786-0
[2] = test system: HL-60
[3] = test system: UACC-257
[4] = test system: HOP-92
[5] = test system: HCT-15
[6] = test system: HCC 2998
[7] = test system: M14
[8] = test system: SF-539
[9] = test system: T47D
[10] = test system: MOLT-4
[11] = test system: UACC-62
[12] = test system: UO-31
[13] = test system: OVCAR-8
[14] = test system: U-251
[15] = test system: OVCAR-5
[16] = test system: SK-MEL-2
[17] = test system: OVCAR-3
[18] = test system: HT-29
[19] = test system: LOX IMVI
[20] = test system: SK-MEL-28
[21] = test system: SK-MEL-5
[22] = test system: TK-10
[23] = test system: KM12
[24] = test system: SF-295
[25] = test system: OVCAR-4
[26] = test system: NCI-H23
[27] = test system: SW-620
[28] = test system: HCT-116
[29] = test system: BT-549
[30] = test system: SK-OV-3
[31] = test system: SNB-19
[32] = test system: CAKI-1
[33] = test system: MDA-MB-231
[34] = test system: NCI-H522
[35] = test system: ACHN
[36] = test system: MDA-N
[37] = test system: PC-3
[38] = test system: COLO 205
[39] = test system: RXF 393
[40] = test system: Malme-3M
[41] = test system: DU-145
[42] = test system: MCF7
[43] = test system: IGROV-1
[44] = test system: NCI-H226
[45] = test system: EKVX
[46] = test system: SN12C
[47] = test system: NCI/ADR-RES
[48] = test system: HOP-62
[49] = test system: NCI-H460
[50] = test system: SR
[51] = test system: SNB-75
[52] = test system: Hs-578T
[53] = test system: SF-268
[54] = test system: A498
[55] = test system: A549
[56] = test system: RPMI-8226
[57] = test system: MDA-MB-435
[58] = test system: K562
[59] = test system: CCRF-CEM

N=C1OC(c2c[nH]c3ccc(OCc4ccccc4)cc23)C(O)=C1O (stereo not given)
GI50 [1]: > 100 µM (inactive) | GI50 [2]: 71.1 µM (inactive) | GI50 [3]: > 100 µM (inactive) | GI50 [4]: > 100 µM (inactive) | GI50 [5]: > 100 µM | GI50 [6]: 0.951 µM (active) | GI50 [7]: > 100 µM (inactive) | GI50 [8]: > 100 µM (inactive) | GI50 [9]: > 100 µM (inactive) | GI50 [10]: > 100 µM (inactive) | GI50 [11]: > 100 µM (inactive) | GI50 [12]: > 100 µM (inactive) | GI50 [13]: > 100 µM (inactive) | GI50 [14]: > 100 µM (inactive) | GI50 [15]: > 100 µM (inactive) | GI50 [16]: > 100 µM (inactive) | GI50 [17]: > 100 µM (inactive) | GI50 [18]: > 100 µM (inactive) | GI50 [19]: > 100 µM (inactive) | GI50 [20]: > 100 µM (inactive) | GI50 [21]: > 100 µM (inactive) | GI50 [22]: > 100 µM (inactive) | GI50 [23]: > 100 µM (inactive) | GI50 [24]: > 100 µM (inactive) | GI50 [25]: > 100 µM (inactive) | GI50 [26]: > 100 µM (inactive) | GI50 [27]: > 100 µM (inactive) | GI50 [28]: > 100 µM (inactive) | GI50 [29]: > 100 µM (inactive) | GI50 [30]: > 100 µM (inactive) | GI50 [31]: > 100 µM (inactive) | GI50 [32]: > 100 µM (inactive) | GI50 [33]: 74.5 µM (inactive) | GI50 [34]: > 100 µM (inactive) | GI50 [35]: > 100 µM (inactive) | GI50 [36]: > 100 µM (inactive) | GI50 [37]: > 100 µM (inactive) | GI50 [38]: > 100 µM (inactive) | GI50 [39]: > 100 µM (inactive) | GI50 [40]: > 100 µM (inactive) | GI50 [41]: > 100 µM (inactive) | GI50 [42]: > 100 µM (inactive) | GI50 [43]: > 100 µM (inactive) | GI50 [44]: > 100 µM (inactive) | GI50 [45]: > 100 µM (inactive) | GI50 [46]: > 100 µM (inactive) | GI50 [47]: > 100 µM (inactive) | GI50 [48]: > 100 µM (inactive) | GI50 [49]: > 100 µM (inactive) | GI50 [50]: > 100 µM (inactive) | GI50 [51]: 29.2 µM (inactive) | GI50 [52]: > 100 µM (inactive) | GI50 [53]: > 100 µM (inactive) | GI50 [54]: 59.2 µM (inactive) | GI50 [55]: > 100 µM (inactive) | GI50 [56]: > 100 µM (inactive) | GI50 [57]: > 100 µM (inactive) | GI50 [58]: > 100 µM (inactive)

Clc1ncnc2c1nc(C#Cc1ccccc1)n2Cc1ccccc1
GI50 [1]: 13.7 µM (inactive) | GI50 [2]: 7.83 µM (inactive) | GI50 [3]: 25.8 µM (inactive) | GI50 [4]: 27.1 µM (inactive) | GI50 [5]: 4.81 µM | GI50 [6]: 11.4 µM (inactive) | GI50 [7]: 19.1 µM (inactive) | GI50 [59]: 3.78 µM (inactive) | GI50 [8]: 29.9 µM (inactive) | GI50 [9]: 39.8 µM (inactive) | GI50 [10]: 3.34 µM (inactive) | GI50 [11]: 30.5 µM (inactive) | GI50 [12]: 2.14 µM (inactive) | GI50 [13]: 12.7 µM (inactive) | GI50 [14]: 17.6 µM (inactive) | GI50 [15]: > 100 µM (inactive) | GI50 [16]: 30 µM (inactive) | GI50 [17]: 3.99 µM (inactive) | GI50 [18]: 24.3 µM (inactive) | GI50 [19]: 11.2 µM (inactive) | GI50 [20]: 18.8 µM (inactive) | GI50 [21]: 32 µM (inactive) | GI50 [22]: > 100 µM (inactive) | GI50 [23]: 23.6 µM (inactive) | GI50 [24]: > 100 µM (inactive) | GI50 [25]: 16.7 µM (inactive) | GI50 [26]: 16.6 µM (inactive) | GI50 [27]: 4.09 µM (inactive) | GI50 [28]: 34 µM (inactive) | GI50 [29]: 20.8 µM (inactive) | GI50 [30]: > 100 µM (inactive) | GI50 [31]: 29.9 µM (inactive) | GI50 [32]: 18.2 µM (inactive) | GI50 [33]: 26.7 µM (inactive) | GI50 [34]: 16.4 µM (inactive) | GI50 [35]: 65.2 µM (inactive) | GI50 [36]: 5.61 µM (inactive) | GI50 [37]: 40.6 µM (inactive) | GI50 [38]: 16.5 µM (inactive) | GI50 [39]: 16.3 µM (inactive) | GI50 [40]: > 100 µM (inactive) | GI50 [41]: 7.52 µM (inactive) | GI50 [42]: 23 µM (inactive) | GI50 [44]: 45.3 µM (inactive) | GI50 [45]: 13.3 µM (inactive) | GI50 [46]: 18.8 µM (inactive) | GI50 [47]: 60 µM (inactive) | GI50 [48]: 24.7 µM (inactive) | GI50 [49]: 82.2 µM (inactive) | GI50 [50]: 3.08 µM (inactive) | GI50 [51]: 25.8 µM (inactive) | GI50 [52]: 53 µM (inactive) | GI50 [53]: 40.9 µM (inactive) | GI50 [54]: > 100 µM (inactive) | GI50 [55]: 84.9 µM (inactive) | GI50 [57]: 11.9 µM (inactive) | GI50 [58]: 3.67 µM (inactive)
